From patent US5241087A (priority 1992, dated 1993)

test system: not listed separately; assay: Permeability through supported-gas membrane (microporous polypropylene hollow fibers, system of FIG. 1); settings: supported-gas membrane system of FIG. 1

SMILES	average permeability relative to the permeability of benzaldehyde cyanohydrin
O=Cc1ccccc1 [benzaldehyde]	roughly 700 times

test system: oxynitrilase enzyme from sorghum; assay: not given; settings: 6 Phytochemistry 473 (1967); cited from earlier work

SMILES	specificity of sorghum oxynitrilase for dehydrocyanation of substrate
N#CC(O)c1ccc(O)cc1 (stereo not drawn) [p-hydroxybenzaldehyde cyanohydrin]	appears to be specific

test system: (R)-oxynitrilase; assay: Relative rate of dehydrocyanation of cyanohydrins by soluble (R)-oxynitrilase (initial rate studies, absorbance); type: biochemical; settings: (R)-oxynitrilase with 0.21 mM solution of cyanohydrin; relative to benzaldehyde cyanohydrin = 1.0
Procedure: The following standardized assay was utilized to measure the activity of oxynitrilase set forth in the Examples which follow. A solution of enzyme was prepared in 0.1M (pH 5.5) citrate buffer. A 3-ml sample of enzyme solution was combined with 30 microliters of 0.21M benzaldehyde cyanohydrin and the rate of increase in absorbance at 250 nm recorded. Then, the same procedure was followed with a 3-ml sample of 0.1M (pH 5.5) citrate buffer to obtain the background, non-enzymatic, reaction. The activity in units/ml was calculated by subtracting the slope of the non-enzymatic reaction from the slope of the enzymatic reaction and converting the absorbance change with time to concentration change with time using a molar extinction coefficient of 13,200 M^-1 cm^-1.
Relative rates of dehydrocyanation of different cyanohydrins subjected to the action of the soluble catalyst (R)-oxynitrilase were determined from initial rate studies. A solution of (R)-oxynitrilase was combined with a 0.21 mM solution of cyanohydrin and the rate of increase of absorbance at the wavelength corresponding to the absorption maxima was monitored as described above in connection with the measurement of catalyst activity. The measured activity was calculated using the appropriate extinction coefficient for the corresponding aldehyde.

SMILES	Relative Rate (dehydrocyanation)
Cc1ccc(C(O)C#N)o1 (stereo not drawn) [5-Methylfurfural cyanohydrin]	2.8
N#CC(O)c1ccccc1 (stereo not drawn) [Benzaldehyde cyanohydrin]	1.0
N#CC(O)C=Cc1ccccc1 (stereo not drawn) [Cinnamaldehyde cyanohydrin]	0.05
CC=CC(O)C#N (stereo not drawn) [Crotonaldehyde cyanohydrin]	0.90
N#CC(O)c1ccco1 (stereo not drawn) [Furfural cyanohydrin]	2.5
N#CC(O)c1ccc2c(c1)OCO2 (stereo not drawn) [Piperonal cyanohydrin]	2.1
COc1cccc(C(O)C#N)c1 (stereo not drawn) [m-Anisaldehyde cyanohydrin]	0.19
COc1ccc(C(O)C#N)cc1 (stereo not drawn) [p-Anisaldehyde cyanohydrin]	0.17
CCc1ccc(C(O)C#N)cc1 (stereo not drawn) [p-Ethylbenzaldehyde cyanohydrin]	0.13
Cc1ccc(C(O)C#N)cc1 (stereo not drawn) [p-Tolualdehyde cyanohydrin]	0.45
